This note sets out measurements from patent US20250243190A1, “NEW DEUTERATED RORGAMMA/RORGAMMAT INVERSE AGONISTS” (IMMUNIC AG, priority 2022, published 2025).

Data set [1] is described as follows: Microsomal stability, human liver microsomes. The note with it: both. The protocol: The conversion to the metabolite was monitored by HPLC-MS/MS. Verapamil served as positive control.
(§1) The metabolism was monitored by HPLC-MS/MS. Verapamil served as positive control. The intrinsic clearance was calculated from the measured remaining compound values.
as §1
Background: Liver microsomes are vesicles of endoplasmic reticulum, rich in cytochrome P450 enzymes.

For another data set, the target named is T1, RORγt (Homo sapiens, UniProt P51449).
T1 sequence (P51449 269-508 limits assumed): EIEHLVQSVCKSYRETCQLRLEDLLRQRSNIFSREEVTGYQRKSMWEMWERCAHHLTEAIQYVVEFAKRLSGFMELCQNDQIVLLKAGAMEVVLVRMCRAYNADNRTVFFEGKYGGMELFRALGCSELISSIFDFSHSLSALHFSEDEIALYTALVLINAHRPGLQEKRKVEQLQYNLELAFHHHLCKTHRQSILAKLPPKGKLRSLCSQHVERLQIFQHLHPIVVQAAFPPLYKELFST
The experiment in a line: Indigo Biosciences Human RAR-related Orphan Receptor, Gamma Reporter Assay (in vitro inhibition of RORγt). In kind it is cell-based. To be noted: RORγt reporter cells, luciferase readout, 22-24 h incubation; read-out: IC50 range. The protocol:
The in vitro inhibition of RORγt was measured using Indigo Biosciences Human RAR-related Orphan Receptor, Gamma Reporter Assay System (Product #IB304001-32) as described in the technical manual. In brief, 200 μL of Reporter Cells is dispensed into wells of the assay plate and preincubated for 4-6 h. Following the pre-incubation period, culture media are discarded and 200 µL/well of the prepared 1×-concentration treatment media are added. Following 22-24 h incubation, treatment media are discarded and Luciferase Detection Reagent is added. The intensity of light emission (in units of ‘Relative Light Units’; RLU) from each assay well is quantified using a plate-reading luminometer. Average values of RLU were determined for each treatment concentration. Non-linear regression analyses were performed and IC50 values determined using GraphPad Prism software. Provided inverse-agonists ursolic acid served as positive control.
In general terms: A reporter such as luciferase makes a cellular process visible.

A further data set concerns SARS-CoV-2. The experiment in a line: Antiviral activity on SARS-CoV-2, viral replication (YFP) assay. In kind it is cell-based. To be noted: Severe acute respiratory syndrome coronavirus 2, read-out: EC50 range. From the text: (§2) The assay for viral replication (YFP) and the cell viability assay has been described in general in Pathogens 2021; 10:1076 and applied to compounds of the present invention furnished the following results: […]

Data set [2] can be described thus: Cell viability assay accompanying the SARS-CoV-2 assay. In kind it is cell-based. To be noted: cell viability assay of the SARS-CoV-2 test.
Text: as §2

Data set [3] in a line: Mouse pharmacokinetics, oral or intravenous cassette dosing. In kind it is in vivo, mice (C57BL/6J). The note with it: C57BL/6J, whole blood, 3 female mice, 5 mg/kg oral cassette, sampling 0.25-8 h; for AUC(0-t): read-out: AUC0-8 h. The protocol:
The pharmacokinetics of the compounds of the present invention was evaluated in 3 male and 3 female mice (C57BL/6J, 8 week old) after oral or intravenous cassette dosing to assess the oral bioavailability. Dose was 5 mg/kg (oral) and 1 mg/kg (intravenous), application volume was 5 mL/kg (oral) and 0.5 mL/kg (intravenous), vehicle was 5% solutol, 95% NaCl solution (at 0.9% saline concentration) for oral and 5% solutol, 5% Ethanol, 90% NaCl solution (at 0.9% saline concentration) for intravenous. At each designated time point (0.25, 0.5, 1, 2, 4, 8 and 24 h after dosing), 20 μL whole blood were collected from the tail vein into Li-heparin tubes, frozen on dry ice within 1-2 minutes of sampling and stored at −20° C. until processed for LC-MS analysis. The obtained data is as follows:
The pharmacokinetics of additional compounds of the present invention was evaluated in 3 female mice (C57BL/6J, 8 week old) after oral cassette dosing. Dose was 5 mg/kg, application volume was 5 mL/kg, vehicle was 5% solutol, 95% NaCl solution (at 0.9% saline concentration). At each designated time point (0.5, 1, 2, 4, 8 and 24 h after dosing), 20 μL whole blood were collected from the tail vein into Li-heparin tubes, frozen on dry ice within 1-2 minutes of sampling and stored at −20° C. until processed for LC-MS analysis. The obtained data is as follows:
The pharmacokinetics of additional compounds of the present invention was evaluated in 3 female mice (C57BL/6J, 8 week old) after oral cassette dosing. Dose was 5 mg/kg, application volume was 5 mL/kg, vehicle was 5% solutol, 95% NaCl solution (at 0.9% saline concentration). At each designated time point (0.25, 0.5, 1, 2, 4 and 8 h after dosing), 20 μL whole blood were collected from the tail vein into Li-heparin tubes, frozen on dry ice within 1-2 minutes of sampling and stored at −20° C. until processed for LC-MS analysis.

A word on the microsomal CLint: it is a measure of how fast metabolising enzymes remove a compound, apart from limits set by blood flow. Read a low microsomal CLint as greater metabolic stability. For orientation: IC50 means the midpoint of a concentration-inhibition curve. Usually EC50 stands for the concentration needed to bring the measured effect to its halfway point. Broadly, the CC50 is the concentration that lowers cell viability or growth by half. As a reminder, the Cmax is the peak of the concentration-time curve. For orientation: half-life means the time in which the quantity being followed falls by half.

`[2H]C(C)(O)C([2H])([2H])n1ncc(-c2onc(-c3c(F)cccc3Cl)c2-c2ncccn2)c1C(F)(F)F` (stereo not shown) [Example 1/1, 1-(4-(3-(2-Chloro-6-fluorophenyl)-4-(pyrimidin-2-yl)isoxazol-5-yl)-5-(trifluoromethyl)-1H-pyrazol-1-yl)propan-1,1,2-d3-2-ol] showed a microsomal CLint in data set [1] of 7.8 µL/min/mg. In addition, the IC50 at RORγt is 10 to 100 nM.

As to `[2H]C([2H])(OC([2H])(C([2H])([2H])[2H])C([2H])([2H])[2H])c1c(-c2c(F)cccc2Cl)noc1-c1cnn(-c2cccc(Cl)c2)c1C(F)(F)F` [Example 102/2], the EC50 in the data set with SARS-CoV-2 was below 100 nM. Further, the IC50 on RORγt is below 10 nM. The CC50 in data set [2] is above 100000 nM. Moreover, in data set [3], the Cmax was 112 ng/mL, the half-life is 2.8 h and the AUC(0-t) was determined as 280 ng·h/mL.

As for `CC(O)Cn1ncc(-c2onc(-c3c(F)cccc3Cl)c2-c2ncccn2)c1C(F)(F)F` (stereo not shown) [Comparative Example C1/2, reference compound], the microsomal CLint in data set [1] stood at 15.7 µL/min/mg.

Regarding `[2H]C([2H])(OC(C)C)c1c(-c2c(F)cccc2Cl)noc1-c1cnn(-c2cccc(Cl)c2)c1C(F)(F)F` [Example 102/1], in the data set on SARS-CoV-2, the EC50 was below 100 nM. On RORγt, the IC50 was below 10 nM. The CC50 in data set [2] is above 100000 nM. Besides, in data set [3], the Cmax is 922 ng/mL, the half-life is 2.6 h and the AUC(0-t) came to 2350 ng·h/mL.

Consider `[2H]C([2H])(CC(C)(C)O)n1ncc(-c2onc(-c3c(F)cc(OC)cc3Cl)c2-c2ncccn2)c1C(F)(F)F` [Example 5, 4-(4-(3-(2-Chloro-6-fluoro-4-methoxyphenyl)-4-(pyrimidin-2-yl)isoxazol-5-yl)-5-(trifluoro-methyl)-1H-pyrazol-1-yl)-2-methylbutan-4,4-d2-2-ol], for which the EC50 in the data set on SARS-CoV-2 fell in the range of 100 to 1000 nM. Besides, on RORγt, the IC50 was in the range of 100 to 1000 nM. The compound further came in with a CC50 in data set [2] above 100000 nM.

Regarding `[2H]C([2H])(OC([2H])([2H])C([2H])([2H])[2H])c1c(-c2c(F)cccc2Cl)noc1-c1cnn(-c2cccc(Cl)c2)c1C(F)(F)F` [Example 110/1], in the data set with SARS-CoV-2, the EC50 is below 100 nM. On RORγt, the IC50 is 10 to 100 nM. Moreover, the CC50 in data set [2] is above 100000 nM.

For `[2H]C([2H])(CC(C)(C)O)n1ncc(-c2onc(-c3c(F)cccc3Cl)c2-c2ncccn2)c1C1CC1` [10/3], the EC50 in the data set on SARS-CoV-2 lay within 100 to 1000 nM. Also, on RORγt, the IC50 was in the range of 100 to 1000 nM. The CC50 in data set [2] was above 100000 nM.

In data set [1], `[2H]C(C)(O)Cn1ncc(-c2onc(-c3c(F)cccc3Cl)c2-c2ncccn2)c1C(F)(F)F` (stereo not shown) [Comparative Example C1/1, reference compound] gave a microsomal CLint of 10.5 µL/min/mg.

As to `[2H]C([2H])(CC(C)(C)O)n1ncc(-c2onc(-c3c(F)cc(OCCN4CCOCC4)cc3Cl)c2-c2ncccn2)c1C(F)(F)F` [Example 6, 4-(4-(3-(2-Chloro-6-fluoro-4-(2-morpholinoethoxy)phenyl)-4-(pyrimidin-2-yl)isoxazol-5-yl)-5-(trifluoromethyl)-1H-pyrazol-1-yl)-2-methylbutan-4,4-d2-2-ol], the EC50 with SARS-CoV-2 was in the range of 100 to 1000 nM. For the same compound, on RORγt, the IC50 was 100 to 1000 nM. Besides, the CC50 in data set [2] amounted to 27000 nM.

Consider `[2H]C([2H])([2H])OC(=O)c1c(-c2c(F)cccc2Cl)noc1-c1cnn(C([2H])([2H])CC(C)(C)O)c1C(F)(F)F` [Example 7/2, Methyl-d3 3-(2-chloro-6-fluorophenyl)-5-(1-(3-hydroxy-3-methylbutyl-1,1-d2)-5-(tri-fluoromethyl)-1H-pyrazol-4-yl)isoxazole-4-carboxylate], for which the EC50 in the data set with SARS-CoV-2 was below 100 nM. Also, at RORγt, the IC50 was 10 to 100 nM. In data set [2], this compound registered a CC50 of 63000 nM.

Take `[2H]C([2H])([C@H](C)O)n1ncc(-c2onc(-c3c(F)cccc3Cl)c2-c2ncccn2)c1C(F)(F)F` [Example 1, (S)-1-(4-(3-(2-Chloro-6-fluorophenyl)-4-(pyrimidin-2-yl)isoxazol-5-yl)-5-(trifluoromethyl)-1H-pyrazol-1-yl)propan-1,1-d2-2-ol]: in the data set on SARS-CoV-2, the EC50 was below 100 nM. For the same compound, on RORγt, the IC50 fell in the range of 10 to 100 nM. This compound displayed a CC50 in data set [2] of 22000 nM.

With `[2H]C([2H])(CC(C)(C)O)n1ncc(-c2onc(-c3c(F)cccc3Cl)c2-c2ncccn2)c1COC` [10/2], in the data set with SARS-CoV-2, the EC50 is 1000 to 50000 nM. Further, the IC50 at RORγt is 100 to 1000 nM. In data set [2], this compound displayed a CC50 above 100000 nM.

As for `[2H]C([2H])([2H])c1c(-c2onc(-c3c(F)cccc3Cl)c2-c2ncccn2)cnn1C([2H])([2H])CC(C)(C)O` [Example 10/1], the EC50 with SARS-CoV-2 was in the range of 100 to 1000 nM. In addition, the IC50 at RORγt fell in the range of 100 to 1000 nM. The same compound displayed a CC50 in data set [2] above 100000 nM.
